Test results taken from patent US20230340011A1 (Asteroid Therapeutics, priority 2022, published 2023).
pIC50: −log10 of the molar value.

Target: SREBP-2 (Homo sapiens (Human), UniProt Q12772)
Assay: In vitro assay SREBP-2: PathHunter U2OS SREBP-2 Nuclear Translocation Cell Line, U18666A-stimulated
Type: cell-based
Conditions: not given

SMILES	pIC50
CNC(=O)O[C@@H](C)[C@H]1CC[C@H]2[C@@H]3CC=C4C[C@@H](O)CC[C@]4(C)[C@H]3CC[C@]12C [Example 243, (1S)-1-[(1S,3aS,3bS,7S,9aR,9bS,11aS)-7-hydroxy-9a,11a-dimethyl-1H,2H,3H,3aH,3bH,4H,6H,7H,8H,9H,9aH,9bH,10H,11H,11aH-cyclopenta[a]phenanthren-1-yl]ethyl N-methylcarbamate]	> 6.60

Same assay, conditions: PathHunter U2OS SREBP-2 nuclear translocation cells, U18666A 10 μM, overnight (16 hours)

SMILES	pIC50
CCCC1(O)CCN(C(=O)CC[C@@H](C)[C@H]2CC[C@H]3[C@@H]4CC=C5C[C@@H](O)CC[C@]5(C)[C@H]4CC[C@]23C)CC1 [Example 148, (R)-4-((3S,8S,9S,10R,13R,14S,17R)-3-hydroxy-10,13-dimethyl-2,3,4,7,8,9,10,11,12,13,14,15,16,17-tetradecahydro-1H-cyclopenta[a]phenanthren-17-yl)-1-(4-hydroxy-4-propylpiperidin-1-yl) pentan-1-one]	> 6.60
CCC1(O)CCN(C(=O)CC[C@@H](C)[C@H]2CC[C@H]3[C@@H]4CC=C5C[C@@H](O)CC[C@]5(C)[C@H]4CC[C@]23C)CC1 [Example 129, (R)-1-(4-ethyl-4-hydroxypiperidin-1-yl)-4-((3S,8S,9S,10R,13R,14S,17R)-3-hydroxy-10,13-dimethyl-2,3,4,7,8,9,10,11,12,13,14,15,16,17-tetradecahydro-1H-cyclopenta[a]phenanthren-17-yl)pentan-1-one]	> 6.60
C#CC1(O)CCN(C(=O)CC[C@@H](C)[C@H]2CC[C@H]3[C@@H]4CC=C5C[C@@H](O)CC[C@]5(C)[C@H]4CC[C@]23C)CC1 [Example 147, (R)-1-(4-ethynyl-4-hydroxypiperidin-1-yl)-4-((3S,8S,9S,10R,13R,14S,17R)-3-hydroxy-10,13-dimethyl-2,3,4,7,8,9,10,11,12,13,14,15,16,17-tetradecahydro-1H-cyclopenta[a]phenanthren-17-yl)pentan-1-one]	> 6.60
CCC1(O)CCN(C(=O)CCC[C@H]2CC[C@H]3[C@@H]4CC=C5C[C@@H](O)CC[C@]5(C)[C@H]4CC[C@]23C)CC1 [Example 370, 1-(4-ethyl-4-hydroxypiperidin-1-yl)-4-((3S,8S,9S,10R,13R,14S,17S)-3-hydroxy-10,13-dimethyl-2,3,4,7,8,9,10,11,12,13,14,15,16,17-tetradecahydro-1H-cyclopenta[a]phenanthren-17-yl)butan-1-one]	6.00 to 6.60
CNC(=O)c1ccc(O[C@@H](C)[C@H]2CC[C@H]3[C@@H]4CC=C5C[C@@H](O)CC[C@]5(C)[C@H]4CC[C@]23C)cn1 [Example 438, 5-((S)-1-((3S,8S,9S,10R,13S,14S,17S)-3-hydroxy-10,13-dimethyl-2,3,4,7,8,9,10,11,12,13,14,15,16,17-tetradecahydro-1H-cyclopenta[a]phenanthren-17-yl)ethoxy)-N-methylpicolinamide]	6.00 to 6.60
C[C@H](CNC(=O)N(C)C)[C@H]1CC[C@H]2[C@@H]3CC=C4C[C@@H](O)CC[C@]4(C)[C@H]3CC[C@]12C [Example 347, 3-((S)-2-((3S,8S,9S,10R,13S,14S,17R)-3-hydroxy-10,13-dimethyl-2,3,4,7,8,9,10,11,12,13,14,15,16,17-tetradecahydro-1H-cyclopenta[a]phenanthren-17-yl)propyl)-1,1-dimethylurea]	6.00 to 6.60
Cc1noc(OC2CCN(C(=O)CC[C@@H](C)[C@H]3CC[C@H]4[C@@H]5CC=C6C[C@@H](O)CC[C@]6(C)[C@H]5CC[C@]34C)CC2)n1 [Example 506, (R)-4-((3S,8S,9S,10R,13R,14S,17R)-3-hydroxy-10,13-dimethyl-2,3,4,7,8,9,10,11,12,13,14,15,16,17-tetradecahydro-1H-cyclopenta[a]phenanthren-17-yl)-1-(4-((3-methyl-1,2,4-oxadiazol-5-yl)oxy)piperidin-1-yl)pentan-1-one]	> 6.60
C[C@H](CCC(=O)N(C)OCCCC(F)(F)F)[C@H]1CC[C@H]2[C@@H]3CC=C4C[C@@H](O)CC[C@]4(C)[C@H]3CC[C@]12C [Example 32, (R)-4-((3S,8S,9S,10R,13R,14S,17R)-3-hydroxy-10,13-dimethyl-2,3,4,7,8,9,10,11,12,13,14,15,16,17-tetradecahydro-1H-cyclopenta[a]phenanthren-17-yl)-N-methyl-N-(4,4,4-trifluorobutoxy)pentanamide]	6.00 to 6.60
C[C@H](CCC(=O)N1CCC(C(NS(C)(=O)=O)C(F)(F)F)CC1)[C@H]1CC[C@H]2[C@@H]3CC=C4C[C@@H](O)CC[C@]4(C)[C@H]3CC[C@]12C (stereo partly drawn) [Example 476, N-(2,2,2-trifluoro-1-(1-((R)-4-((3S,8S,9S,10R,13R,14S,17R)-3-hydroxy-10,13-dimethyl-2,3,4,7,8,9,10,11,12,13,14,15,16,17-tetradecahydro-1H-cyclopenta[a]phenanthren-17-yl)pentanoyl)piperidin-4-yl)ethyl)methanesulfonamide]	> 6.60
COC(=O)N1CCN(C(=O)OC[C@@H](C)[C@H]2CC[C@H]3[C@@H]4CC=C5C[C@@H](O)CC[C@]5(C)[C@H]4CC[C@]23C)CC1 [Example 465, 1-(2S)-2-[(1R,3aS,3bS,7S,9aR,9bS,11aS)-7-hydroxy-9a,11a-dimethyl-1H,2H,3H,3aH,3bH,4H,6H,7H,8H,9H,9aH,9bH,10H,11H,11aH-cyclopenta[a]phenanthren-1-yl]propyl 4-methyl piperazine-1,4-dicarboxylate]	> 6.60
C[C@H](CCC(=O)N1CCC(N2CCOC(C)(C)C2=O)CC1)[C@H]1CC[C@H]2[C@@H]3CC=C4C[C@@H](O)CC[C@]4(C)[C@H]3CC[C@]12C [Example 524, 4-(1-((R)-4-((3S,8S,9S,10R,13R,14S,17R)-3-hydroxy-10,13-dimethyl-2,3,4,7,8,9,10,11,12,13,14,15,16,17-tetradecahydro-1H-cyclopenta[a]phenanthren-17-yl)pentanoyl)piperidin-4-yl)-2,2-dimethylmorpholin-3-one]	6.00 to 6.60
C[C@H](CCc1ncccc1C(C)(C)O)[C@H]1CC[C@H]2[C@@H]3CC=C4C[C@@H](O)CC[C@]4(C)[C@H]3CC[C@]12C [Example 456, (3S,8S,9S,10R,13R,14S,17R)-17-((R)-4-(3-(2-hydroxypropan-2-yl)pyridin-2-yl)butan-2-yl)-10,13-dimethyl-2,3,4,7,8,9,10,11,12,13,14,15,16,17-tetradecahydro-1H-cyclopenta[a]phenanthren-3-ol]	> 6.60
Cc1ccnc(OC[C@@H](C)[C@H]2CC[C@H]3[C@@H]4CC=C5C[C@@H](O)CC[C@]5(C)[C@H]4CC[C@]23C)c1 [Example 262, (1R,3aS,3bS,7S,9aR,9bS,11aS)-9a,11a-dimethyl-1-[(2S)-1-[(4-methylpyridin-2-yl)oxy]propan-2-yl]-1H,2H,3H,3aH,3bH,4H,6H,7H,8H,9H,9aH,9bH,10H,11H,11aH-cyclopenta[a]phenanthren-7-ol]	> 6.60
Cc1ccc(OC[C@@H](C)[C@H]2CC[C@H]3[C@@H]4CC=C5C[C@@H](O)CC[C@]5(C)[C@H]4CC[C@]23C)nc1 [Example 441, (3S,8S,9S,10R,13S,14S,17R)-10,13-dimethyl-17-((S)-1-((5-methylpyridin-2-yl)oxy)propan-2-yl)-2,3,4,7,8,9,10,11,12,13,14,15,16,17-tetradecahydro-1H-cyclopenta[a]phenanthren-3-ol]	6.00 to 6.60
C[C@H](OC(=O)N(C)C)[C@H]1CC[C@H]2[C@@H]3CC=C4C[C@@H](O)CC[C@]4(C)[C@H]3CC[C@]12C [Example 461, (1S)-1-[(1S,3aS,3bS,7S,9aR,9bS,11aS)-7-hydroxy-9a,11a-dimethyl-1H,2H,3H,3aH,3bH,4H,6H,7H,8H,9H,9aH,9bH,10H,11H,11aH-cyclopenta[a]phenanthren-1-yl]ethyl N,N-dimethylcarbamate]	6.00 to 6.60
C[C@H](CCC(=O)Nc1ccc(C(N)=O)cc1)[C@H]1CC[C@H]2[C@@H]3CC=C4C[C@@H](O)CC[C@]4(C)[C@H]3CC[C@]12C [Example 556, 4-((R)-4-((3S,8S,9S,10R,13R,14S,17R)-3-hydroxy-10,13-dimethyl-2,3,4,7,8,9,10,11,12,13,14,15,16,17-tetradecahydro-1H-cyclopenta[a]phenanthren-17-yl)pentanamido)benzamide]	> 6.60
CNC(=O)NC[C@@H](C)[C@H]1CC[C@H]2[C@@H]3CC=C4C[C@@H](O)CC[C@]4(C)[C@H]3CC[C@]12C [Example 239, 1-((S)-2-((3S,8S,9S,10R,13S,14S,17R)-3-hydroxy-10,13-dimethyl-2,3,4,7,8,9,10,11,12,13,14,15,16,17-tetradecahydro-1H-cyclopenta[a]phenanthren-17-yl)propyl)-3-methylurea]	6.00 to 6.60
CC(=O)N1CCC(C(=O)N(C)CC[C@@H](C)[C@H]2CC[C@H]3[C@@H]4CC=C5C[C@@H](O)CC[C@]5(C)[C@H]4CC[C@]23C)CC1 [Example 408, 1-acetyl-N—((R)-3-((3S,8S,9S,10R,13R,14S,17R)-3-hydroxy-10,13-dimethyl-2,3,4,7,8,9,10,11,12,13,14,15,16,17-tetradecahydro-1H-cyclopenta[a]phenanthren-17-yl)butyl)-N-methylpiperidine-4-carboxamide]	6.00 to 6.60
CNC(=O)c1cccc(OC[C@@H](C)[C@H]2CC[C@H]3[C@@H]4CC=C5C[C@@H](O)CC[C@]5(C)[C@H]4CC[C@]23C)n1 [Example 448, 6-((S)-2-((3S,8S,9S,10R,13S,14S,17R)-3-hydroxy-10,13-dimethyl-2,3,4,7,8,9,10,11,12,13,14,15,16,17-tetradecahydro-1H-cyclopenta[a]phenanthren-17-yl)propoxy)-N-methylpicolinamide]	6.00 to 6.60
CNC(=O)[C@H]1CCN(C(=O)CC[C@@H](C)[C@H]2CC[C@H]3[C@@H]4CC=C5C[C@@H](O)CC[C@]5(C)[C@H]4CC[C@]23C)C1 [Example 536, (S)-1-((R)-4-((3S,8S,9S,10R,13R,14S,17R)-3-hydroxy-10,13-dimethyl-2,3,4,7,8,9,10,11,12,13,14,15,16,17-tetradecahydro-1H-cyclopenta[a]phenanthren-17-yl)pentanoyl)-N-methylpyrrolidine-3-carboxamide]	6.00 to 6.60
